According to PubChem BioAssay AID248 (DTP/NCI, 2004):
Several values for one entry are separate records, joined by “and”; a condition that tells them apart may be missing. Identical values can stand only once. Toxic doses and inconclusive results are not listed.

System: L1210 leukemia ip in BDF1 mice, survival T/C
Experiment: NCI In Vivo Anticancer Drug Screen. Data for tumor model L1210 Leukemia (intraperitoneal) in B6D2F1 (BDF1) mice
Details: higher = longer survival
Procedure, shortened: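 Mice bearing the transplanted tumor received compound or vehicle. Survival of the treated group was divided by that of the vehicle-treated control group to give the ratio.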

NC(C/[N+]([O-])=N/O)C(=O)O (stereo not drawn)
T/C (endpoint: mean survival time, dose: 200.0 mg/kg/injection, schedule: Q01DX001 (ip), vehicle: carboxymethylcellulose (CMC)): 124 % of control
T/C (endpoint: mean survival time, dose: 200.0 mg/kg/injection, schedule: Q01DX003 (ip), vehicle: sodium bicarbonate): 164 % of control
T/C (endpoint: mean survival time, dose: 200.0 mg/kg/injection, schedule: Q01DX009 (ip), vehicle: saline): 102 % of control
T/C (endpoint: mean survival time, dose: 256.0 mg/kg/injection, schedule: Q01DX001 (ip), vehicle: saline): 117 % of control
T/C (endpoint: mean survival time, dose: 256.0 mg/kg/injection, schedule: Q01DX001 (oral), vehicle: saline): 103 % of control
T/C (endpoint: mean survival time, dose: 256.0 mg/kg/injection, schedule: Q01DX001 (sc), vehicle: saline): 108 % of control
T/C (endpoint: mean survival time, dose: 256.0 mg/kg/injection, schedule: Q01DX009 (ip), vehicle: saline): 95 % of control
T/C (endpoint: mean survival time, dose: 256.0 mg/kg/injection, schedule: Q08DX002 (ip), vehicle: saline): 121 % of control
T/C (endpoint: mean survival time, dose: 266.0 mg/kg/injection, schedule: Q04DX003 (ip), vehicle: saline with Tween-80): 115 % of control
T/C (endpoint: mean survival time, dose: 400.0 mg/kg/injection, schedule: Q01DX003 (ip), vehicle: sodium bicarbonate): 172 % of control
T/C (endpoint: mean survival time, dose: 400.0 mg/kg/injection, schedule: Q04DX003 (ip), vehicle: Klucel (hydroxypropylcellulose) (HPC)): 151 % of control
T/C (endpoint: mean survival time, dose: 512.0 mg/kg/injection, schedule: Q01DX001 (ip), vehicle: saline): 117 % of control
T/C (endpoint: mean survival time, dose: 512.0 mg/kg/injection, schedule: Q01DX001 (oral), vehicle: saline): 97 % of control
T/C (endpoint: mean survival time, dose: 512.0 mg/kg/injection, schedule: Q01DX001 (sc), vehicle: saline): 106 % of control
T/C (endpoint: mean survival time, dose: 600.0 mg/kg/injection, schedule: Q01DX003 (ip), vehicle: sodium bicarbonate): 172 % of control
T/C (endpoint: mean survival time, dose: 600.0 mg/kg/injection, schedule: Q04DX003 (ip), vehicle: saline with Tween-80): 121 % of control
T/C (endpoint: mean survival time, dose: 600.0 mg/kg/injection, schedule: Q04DX003 (ip), vehicle: saline): 161 % of control and 159 % of control
T/C (endpoint: mean survival time, dose: 800.0 mg/kg/injection, schedule: Q01DX003 (ip), vehicle: sodium bicarbonate): 175 % of control
T/C (endpoint: mean survival time, dose: 800.0 mg/kg/injection, schedule: Q04DX003 (ip), vehicle: Klucel (hydroxypropylcellulose) (HPC)): 106 % of control
T/C (endpoint: mean survival time, dose: 800.0 mg/kg/injection, schedule: Q04DX003 (ip), vehicle: saline with Tween-80): 154 % of control
T/C (endpoint: mean survival time, dose: 1000.0 mg/kg/injection, schedule: Q01DX003 (ip), vehicle: sodium bicarbonate): 96 % of control
T/C (endpoint: mean survival time, dose: 1000.0 mg/kg/injection, schedule: Q04DX003 (ip), vehicle: saline with Tween-80): 92 % of control
T/C (endpoint: mean survival time, dose: 1024.0 mg/kg/injection, schedule: Q01DX001 (sc), vehicle: saline): 110 % of control
T/C (endpoint: mean survival time, dose: 1024.0 mg/kg/injection, schedule: Q04DX003 (ip), vehicle: saline): 150 % of control
T/C (endpoint: median survival time, dose: 8.0 mg/kg/injection, schedule: Q01DX009 (ip), vehicle: saline): 105 % of control
T/C (endpoint: median survival time, dose: 8.0 mg/kg/injection, schedule: Q01DX009 (oral), vehicle: saline): 100 % of control
T/C (endpoint: median survival time, dose: 8.0 mg/kg/injection, schedule: Q01DX009 (sc), vehicle: saline): 105 % of control
T/C (endpoint: median survival time, dose: 16.0 mg/kg/injection, schedule: Q01DX009 (oral), vehicle: saline): 100 % of control
T/C (endpoint: median survival time, dose: 16.0 mg/kg/injection, schedule: Q01DX009 (sc), vehicle: saline): 100 % of control and 105 % of control
T/C (endpoint: median survival time, dose: 32.0 mg/kg/injection, schedule: Q01DX009 (oral), vehicle: saline): 111 % of control
T/C (endpoint: median survival time, dose: 32.0 mg/kg/injection, schedule: Q01DX009 (sc), vehicle: saline): 111 % of control
T/C (endpoint: median survival time, dose: 64.0 mg/kg/injection, schedule: Q01DX009 (ip), vehicle: saline): 100 % of control and 111 % of control
T/C (endpoint: median survival time, dose: 64.0 mg/kg/injection, schedule: Q04DX003 (ip), vehicle: saline): 105 % of control
T/C (endpoint: median survival time, dose: 64.0 mg/kg/injection, schedule: Q04DX003 (oral), vehicle: saline): 100 % of control
T/C (endpoint: median survival time, dose: 100.0 mg/kg/injection, schedule: Q04DX003 (ip), vehicle: saline): 116 % of control and 100 % of control
T/C (endpoint: median survival time, dose: 128.0 mg/kg/injection, schedule: Q01DX009 (ip), vehicle: saline): 100 % of control
T/C (endpoint: median survival time, dose: 128.0 mg/kg/injection, schedule: Q01DX009 (sc), vehicle: saline): 105 % of control
T/C (endpoint: median survival time, dose: 128.0 mg/kg/injection, schedule: Q04DX003 (oral), vehicle: saline): 100 % of control
T/C (endpoint: median survival time, dose: 200.0 mg/kg/injection, schedule: Q04DX003 (ip), vehicle: saline): 111 % of control
T/C (endpoint: median survival time, dose: 400.0 mg/kg/injection, schedule: Q04DX003 (ip), vehicle: saline): 116 % of control
T/C (endpoint: median survival time, dose: 1000.0 mg/kg/injection, schedule: Q04DX003 (ip), vehicle: saline): 155 % of control
T/C (endpoint: median survival time, dose: 1024.0 mg/kg/injection, schedule: Q04DX003 (ip), vehicle: saline): 111 % of control
T/C (endpoint: median survival time, dose: 1024.0 mg/kg/injection, schedule: Q04DX003 (sc), vehicle: saline): 94 % of control
